Test: In vitro human liver microsomal stability assay
Type: in vitro ADME
Conditions: human liver microsomes 2 mg per mL protein, NADPH-generating system, 1 μM test compound, 37±1° C., 0-240 min, change relative to non-deuterated d0 (Example 1); for Half-Life % change over d0: degradation half-life
Description: In Vitro Liver Microsomal Stability Assay
Human liver microsomal stability assays were conducted at 2 mg per mL liver microsome protein with an NADPH-generating system consisting of NADP (1 mM, pH 7.4), […] (5 mM, pH 7.4), and glucose-6-phosphate dehydrogenase (I unit/mL).
Test compounds were prepared as solutions in DMSO and added to the assay mixture (1 μM, final concentration in incubation) to be incubated at 37±1° C. Reactions were initiated with the addition of cofactor and were stopped at 0, 60, 120, or 240 min after cofactor addition with stop reagent (0.2 mL acetonitrile). Samples were centrifuged (920×g for 10 min at 10° C.) in 96-well plates. Supernatant fractions were analyzed by LC-MS/MS to determine the percent remaining and estimate the degradation half-life of the test compounds.

| SMILES | Clearance % change over d0 [%] | Half-Life % change over d0 [%] |
| --- | --- | --- |
| [2H]C(C)(C)Oc1ccc(-c2nc(-c3cccc4c3CC[C@@H]4NCCO)no2)cc1C#N [Example 2, 5-[3-[(1S)-1-[(2-hydroxyethyl)amino]-2,3-dihydro-1H-inden-4-yl]-1,2,4-oxadiazol-5-yl]-2-[(2-^2H)propan-2-yloxy]benzonitrile] | 1 | −9.0 |
| [2H]C([2H])([2H])C([2H])(Oc1ccc(-c2nc(-c3cccc4c3CC[C@@H]4NC([2H])([2H])C([2H])([2H])O)no2)cc1C#N)C([2H])([2H])[2H] [Example 5, 5-[3-[(1S)-1-[[2-hydroxy(^2H7)ethyl]amino]-2,3-dihydro-1H-inden-4-yl]-1,2,4-oxadiazol-5-yl]-2-[(^2H4)propan-2-yloxy]benzonitrile] | 11 | 0.0 |
| [2H]C(C)(C)Oc1ccc(-c2nc(-c3cccc4c3CC[C@]4([2H])NCCO)no2)cc1C#N [Example 6, 5-[3-[(1S)-1-[(2-hydroxyethyl)amino]-2,3-dihydro(1-^2H)-1H-inden-4-yl]-1,2,4-oxadiazol-5-yl]-2-[(2-^2H)propan-2-yloxy]benzonitrile] | 2 | 17.9 |
| CC(C)Oc1ccc(-c2nc(-c3cccc4c3CC[C@@H]4NCCO)no2)cc1C#N [Example 1, 5-[3-[(1S)-1-[(2-hydroxyethyl)amino]-2,3-dihydro-1H-inden-4-yl]-1,2,4-oxadiazol-5-yl]-2-(propan-2-yloxy)benzonitrile, reference compound] | 0.00 | 0.0 |
| [2H]C([2H])([2H])C([2H])(Oc1ccc(-c2nc(-c3cccc4c3CC[C@@H]4NCCO)no2)cc1C#N)C([2H])([2H])[2H] [Example 3, 5-[3-[(1S)-1-[(2-hydroxyethyl)amino]-2,3-dihydro-1H-inden-4-yl]-1,2,4-oxadiazol-5-yl]-2-[(^2H7)propan-2-yloxy]benzonitrile] | 7 | 0.0 |
| [2H]C(C)(C)Oc1ccc(-c2nc(-c3cccc4c3CC[C@@H]4NC([2H])([2H])C([2H])([2H])O)no2)cc1C#N [Example 4, 5-[3-[(1S)-1-[[2-hydroxy(^2H4)ethyl]amino]-2,3-dihydro-1H-inden-4-yl]-1,2,4-oxadiazol-5-yl]-2-[(2-^2H)propan-2-yloxy]benzonitrile] | 5 | −4.6 |

From US20180016244A1, “DEUTERIUM-SUBSTITUTED OXADIAZOLES” (Auspex Pharmaceuticals, Inc., priority 2015, published 2018)
